Twelve molecules from PubChem BioAssay (NCI) can be followed below.

Experiment in all cases: NCI tumour cell line growth inhibition, 48 h
The subject of assay [1] is SF-295 CNS.
Assay [2] deals with HS 578T breast.
The test system of assay [3] is A498 renal.
The subject of assay [4] is PC-3 prostate.
The subject of assay [5] is HT29 colon.
Assay [6] has as its system NCI-H522 lung.
Assay [7] concerns ACHN renal.
For assay [8], the system named is UACC-257 melanoma.
Assay [9] relates to SK-MEL-28 melanoma.
For assay [10], the system named is CAKI-1 renal.
In assay [11] the test system is OVCAR-5 ovarian.
Assay [12] relates to DU-145 prostate.
Assay [13] concerns BT-549 breast.
Assay [14] has as its system EKVX NSCLC.
Assay [15] deals with HCT-15 colon.
For assay [16], the system named is SK-OV-3 ovarian.
Assay [17] concerns A549 NSCLC.
Assay [18] has as its system SR leukemia.
Assay [19] relates to U251 CNS.
The test system of assay [20] is MDA-MB-231 breast.

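Growth conditions: 96-well plates. Treatment: test compound, 48 hours, 5 concentrations. Analysis: linear interpolation between bracketing concentrations; unreached endpoints set to highest concentration. TGI: concentration producing complete growth inhibition.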

Regarding `O=C(NN1C(=O)C(Cl)C1c1ccc(Cl)cc1)c1c(Cl)c(Cl)c(Cl)c(Cl)c1-c1nc2ccccc2[nH]1` (centres undefined), the TGI is greater than 100 µM in [1]; greater than 100 µM in assay [2]; 63.6 µM in assay [3]; greater than 100 µM in assay [4]; 75.8 µM in assay [5]; 39.7 µM in [6]. Also, the TGI is 43.5 µM in [7]; greater than 100 µM in assay [8]; 78.7 µM in assay [9]; 23.2 µM in assay [10]; greater than 100 µM in assay [11]; 42.6 µM in assay [12]. The TGI in assay [13] is 77.8 µM; in assay [14], 88.7 µM; in assay [15], 54.4 µM; in assay [16], greater than 100 µM; in assay [17], greater than 100 µM; in assay [18], greater than 100 µM.
Regarding `CC(C)(C)C1=C(Br)C(C(C)(C)C)OP1(=O)O` (centres undefined), the TGI in assay [1], in assay [2], in assay [3], in assay [4], in assay [5] and in assay [6] was greater than 100 µM throughout. Further, the TGI in assay [7], in assay [8], in assay [19], in assay [9], in [10] and in assay [11] was greater than 100 µM each time. In addition, the TGI in assay [12], in assay [14], in assay [15], in assay [16] and in assay [17] was greater than 100 µM in each case.
Take `CN(/N=C/c1ccc(C(=O)O)cc1)C1=NCCCCN1`: the TGI in [1], in [3], in assay [4], in assay [5], in assay [6] and in [7] was greater than 100 µM each time. Also, the TGI in [8], in assay [19], in assay [9], in assay [10], in [11] and in assay [20] was greater than 100 µM in each case. For the same molecule, the TGI in [12], in assay [13], in assay [14], in [15], in assay [16] and in assay [17] was greater than 100 µM throughout. This molecule showed a TGI in assay [18] greater than 100 µM.
Consider `CNc1ncccc1Nc1cc(=O)n2c3cccnc3n(C)c2c1`, for which the TGI in assay [1], in assay [3], in assay [4], in assay [5], in [6] and in [7] was greater than 100 µM in each case. For the same molecule, the TGI in assay [8], in assay [19], in assay [9], in assay [10], in assay [11] and in assay [20] was greater than 100 µM throughout. The TGI in [12], in assay [13], in [14], in assay [15], in [16] and in [17] was greater than 100 µM in each case. In [18], the TGI is greater than 100 µM.
Take `Nn1c(C23CC4CC(CC(C4)C2)C3)n[nH]c1=S`: the TGI in assay [1], in [2], in assay [3], in assay [4], in [5] and in [6] was greater than 100 µM in each case. For the same molecule, the TGI in assay [7], in [19], in [9], in assay [10], in assay [11] and in assay [20] was greater than 100 µM in each case. In addition, the TGI in [12], in assay [14], in [15], in assay [16], in assay [17] and in [18] was greater than 100 µM throughout.
On to `CC(=O)SCCC(NC(=S)Nc1ccccc1)P(=O)(Oc1ccccc1)Oc1ccccc1` (centres undefined), for which the TGI in assay [1], in [2], in [5], in [6], in assay [7] and in assay [8] was greater than 100 µM each time. Besides, the TGI in [19], in assay [9], in assay [10], in assay [11], in assay [20] and in [12] was greater than 100 µM in each case. For the same molecule, the TGI in assay [14], in assay [15], in assay [16], in assay [17] and in assay [18] was greater than 100 µM throughout.
As to `S=C(N/N=C/c1ccccn1)N1CCCCC1`, the TGI was greater than 100 µM in assay [1]; 45.1 µM in assay [2]; greater than 100 µM in assay [4]; greater than 100 µM in [5]; 25.7 µM in [6]; 3.44 µM in [7]. In addition, the TGI in assay [8] is 0.188 µM; in assay [19], greater than 43.1 µM; in assay [9], greater than 100 µM; in [10], greater than 100 µM; in [11], greater than 100 µM; in assay [12] it was greater than 100 µM. The TGI was 32.5 µM in assay [13]; 17.4 µM in assay [14]; 28.3 µM in assay [15]; greater than 38.8 µM in [16]; greater than 100 µM in assay [17]; 0.217 µM in [18].
For `N#CSCC(Cl)=CCl` (mixture of isomers), the TGI in [1], in assay [2], in assay [3], in assay [4], in assay [5] and in assay [6] was greater than 100 µM throughout. Also, the TGI in assay [7], in [8], in assay [19], in assay [9], in assay [11] and in assay [20] was greater than 100 µM throughout. Moreover, the TGI in assay [12], in assay [14], in assay [15], in [16], in assay [17] and in assay [18] was greater than 100 µM throughout.
`O=c1[nH]c2cc(C(F)(F)F)ccc2nc1C(F)(F)F`: the TGI in [1] is greater than 100 µM; in assay [3] it was greater than 100 µM; in assay [4] it was 97.2 µM; in [5], greater than 100 µM; in [6], 99.1 µM; in assay [7] it was greater than 100 µM. Besides, the TGI was 90.6 µM in assay [8]; greater than 100 µM in assay [19]; greater than 100 µM in assay [9]; 89.9 µM in assay [10]; greater than 100 µM in assay [11]; greater than 100 µM in assay [20]. Moreover, the TGI in [12], in [13], in [14], in assay [15], in assay [16] and in [17] was greater than 100 µM throughout. In assay [18], the TGI was greater than 100 µM.
As for `Cc1ccc(C(=O)O)c(/C=C2\Cc3ccc(C)cc3C2=O)c1`, the TGI in [1], in [2], in assay [3], in [4], in assay [5] and in [6] was greater than 100 µM throughout. Also, the TGI in [7], in assay [8], in assay [19], in assay [9], in [10] and in assay [11] was greater than 100 µM in each case. The TGI in [12], in [13], in assay [14], in assay [15], in [17] and in assay [18] was greater than 100 µM each time.
Turning to `N[C@@H]1CCN(c2c(F)cc3c(=O)c(C(=O)O)cn4c3c2Oc2c-4ccc3c2ccc2ccccc23)C1`, the TGI in [1], in assay [2], in assay [3], in [4], in assay [5] and in [6] was greater than 100 µM each time. For the same molecule, the TGI in assay [7] is 4.25 µM; in [8] it was greater than 100 µM; in assay [19] it was 10.5 µM; in assay [9], greater than 100 µM; in assay [10], greater than 100 µM; in assay [11] it was greater than 100 µM. The TGI in [12], in [13], in assay [14], in [15], in assay [16] and in [17] was greater than 100 µM each time. The TGI in assay [18] is greater than 100 µM.
`CCCCCCNCCc1cnc[nH]1`: the TGI in assay [1], in assay [2], in assay [3], in assay [4], in assay [5] and in assay [6] was greater than 100 µM in each case. Also, the TGI in [7], in assay [8], in assay [19], in assay [9], in assay [10] and in assay [11] was greater than 100 µM throughout. Moreover, the TGI in assay [20], in assay [12], in [14], in assay [15], in assay [16] and in assay [17] was greater than 100 µM throughout. Also, in assay [18], the TGI is greater than 100 µM.
